In ChEMBL document CHEMBL4483862, “Open-source discovery of chemical leads for next-generation chemoprotective antimalarials” (2018):

Tested on: Plasmodium berghei
Test: Luciferase/luciferin-expressing antifolate-resistant parasites were used to infect a culture of HepG2 cells that were pre-incubated with compounds. Infected hepatocytes emit light due to the luciferase reaction. Assay results are presented as the percent inhibition of light emission compared to control. […]
Type: functional
Settings: sporozoite; for IC90: read-out: LUCIFERASE INFECTION ASSAY - IC90

Row | Structure (SMILES) | IC90 [µM] | other results
1 | Cc1nn(-c2ccc(F)cc2)c(Cl)c1/C=C1\C(=O)Nc2ccccc21 | 4.68 | IC50 (HEPG2TOX_HILL_SLOPE 2.09, HEPG2TOX_R_SQUARED 0.992, PBLUC_HILL_SLOPE 1.31, PBLUC_R_SQUARED 0.551, read-out: LUCIFERASE INFECTION ASSAY - IC50): 0.878 µM
2 | CCCOc1ccc(C(=O)CCC(=O)NNC(=O)c2ccncc2)cc1 | 5.4 | IC50 (HEPG2TOX_HILL_SLOPE 2.12, HEPG2TOX_R_SQUARED 0.868, PBLUC_HILL_SLOPE 86, PBLUC_R_SQUARED 0.219, read-out: LUCIFERASE INFECTION ASSAY - IC50): 5.26 µM
3 | COc1cc(-c2ccc3ncc(-c4cccc(CO)c4)n3n2)cc(OC)c1OC | 2.51 | IC50 (HEPG2TOX_HILL_SLOPE 2.11, HEPG2TOX_R_SQUARED 0.989, PBLUC_HILL_SLOPE 5.29, PBLUC_R_SQUARED 0.606, read-out: LUCIFERASE INFECTION ASSAY - IC50): 1.66 µM
4 | CCOC(=O)c1sc(NC(=O)Nc2ccc([N+](=O)[O-])cc2)cc1C | 4.91 | IC50 (HEPG2TOX_HILL_SLOPE 2.1, HEPG2TOX_R_SQUARED 0.922, PBLUC_HILL_SLOPE 2.24, PBLUC_R_SQUARED 0.786, read-out: LUCIFERASE INFECTION ASSAY - IC50): 1.84 µM
5 | N#C/C(=N\Nc1cccc(C(F)(F)F)c1)S(=O)(=O)c1ccsc1 | > 9.18 | IC50 (HEPG2TOX_HILL_SLOPE 2.11, HEPG2TOX_R_SQUARED 0.943, PBLUC_HILL_SLOPE 4.11, PBLUC_R_SQUARED 0.604, read-out: LUCIFERASE INFECTION ASSAY - IC50): 6.42 µM
6 | O=c1c(Cl)c(Cl)cnn1-c1nc2ccccc2[nH]1 | 1.65 | IC50 (HEPG2TOX_HILL_SLOPE 2.11, HEPG2TOX_R_SQUARED 0.958, PBLUC_HILL_SLOPE 7.93, PBLUC_R_SQUARED 0.809, read-out: LUCIFERASE INFECTION ASSAY - IC50): 1.25 µM
7 | OCc1ccc(-c2cnc3ccc(-c4ccccc4)nn23)cc1 | 3.93 | IC50 (HEPG2TOX_HILL_SLOPE 2.14, HEPG2TOX_R_SQUARED 0.888, PBLUC_HILL_SLOPE 1.3, PBLUC_R_SQUARED 0.716, read-out: LUCIFERASE INFECTION ASSAY - IC50): 0.73 µM
8 | COc1ccc(-c2cnc3ccc(NCc4ccc(F)cc4)nn23)cc1 | 3.94 | IC50 (HEPG2TOX_HILL_SLOPE 2.12, HEPG2TOX_R_SQUARED 0.979, PBLUC_HILL_SLOPE 9.57, PBLUC_R_SQUARED 0.534, read-out: LUCIFERASE INFECTION ASSAY - IC50): 3.13 µM
9 | CC(C)NC(=O)c1c(NC(=O)c2ccc(Cl)cc2)nc2ccccn12 | 1.07 | IC50 (HEPG2TOX_HILL_SLOPE 2.11, HEPG2TOX_R_SQUARED 0.869, PBLUC_HILL_SLOPE 50.8, PBLUC_R_SQUARED 0.665, read-out: LUCIFERASE INFECTION ASSAY - IC50): 1.02 µM
10 | CC1CCC(C(C)C)C(OC(=O)C[n+]2cn(C)c3ccccc32)C1 (centres undefined) | 3.79 | IC50 (HEPG2TOX_HILL_SLOPE 2.1, HEPG2TOX_R_SQUARED 0.908, PBLUC_HILL_SLOPE 16.2, PBLUC_R_SQUARED 0.404, read-out: LUCIFERASE INFECTION ASSAY - IC50): 3.31 µM
11 | C/N=c1\scc(-c2ccc(OC(F)F)cc2)n1/N=C/c1ccccc1Br | 3.26 | IC50 (HEPG2TOX_HILL_SLOPE 2.13, HEPG2TOX_R_SQUARED 0.347, PBLUC_HILL_SLOPE 0.898, PBLUC_R_SQUARED 0.747, read-out: LUCIFERASE INFECTION ASSAY - IC50): 0.283 µM
12 | Clc1cccc(-c2cnc3sc(NCCc4ccncc4)nn23)c1 | > 9.27 | IC50 (HEPG2TOX_HILL_SLOPE 2.13, HEPG2TOX_R_SQUARED 0.945, PBLUC_HILL_SLOPE 2.85, PBLUC_R_SQUARED 0.464, read-out: LUCIFERASE INFECTION ASSAY - IC50): 5.6 µM
13 | Cc1cc(C(=O)OCC(=O)Nc2cccc(C#N)c2)c(C)n1-c1ccccc1 | > 10 | IC50 (HEPG2TOX_HILL_SLOPE 2.12, HEPG2TOX_R_SQUARED 0.531, read-out: LUCIFERASE INFECTION ASSAY - IC50): > 10 µM
14 | Cc1ccc(NC(=O)COCc2nc3ccccc3s2)cc1S(=O)(=O)Nc1ccccc1F | > 10 | IC50 (HEPG2TOX_HILL_SLOPE 2.14, HEPG2TOX_R_SQUARED 0.975, PBLUC_HILL_SLOPE 2, PBLUC_R_SQUARED 0.573, read-out: LUCIFERASE INFECTION ASSAY - IC50): 4.27 µM
15 | CCc1cccc2c(C3=NNC(=Nc4cccc(S(=O)(=O)N(C)C)c4)SC3)c[nH]c12 | 3.4 | IC50 (HEPG2TOX_HILL_SLOPE 2.11, HEPG2TOX_R_SQUARED 0.991, PBLUC_HILL_SLOPE 17, PBLUC_R_SQUARED 0.266, read-out: LUCIFERASE INFECTION ASSAY - IC50): 2.99 µM
16 | CC1Cc2cc(C(=O)CSc3nnc(Cc4cccs4)n3C)ccc2N1S(C)(=O)=O (centres undefined) | > 10 | IC50 (HEPG2TOX_HILL_SLOPE 2.13, 1.88, HEPG2TOX_R_SQUARED 0.890, 0.990, PBLUC_HILL_SLOPE 2.16, PBLUC_R_SQUARED 0.278, read-out: LUCIFERASE INFECTION ASSAY - IC50): 3.7 µM

Row | Structure (SMILES) | IC90 [µM] | other results
17 | C=CS(=O)(=O)Oc1cc(C)cc(C)c1 | > 10 | IC50 (HEPG2TOX_HILL_SLOPE 2.11, HEPG2TOX_R_SQUARED 0.803, read-out: LUCIFERASE INFECTION ASSAY - IC50): > 10 µM
18 | Cc1ccc2c(c1)C(c1ccccc1C(F)(F)F)CC(=O)N2 (centres undefined) | > 10.8 | IC50 (HEPG2TOX_HILL_SLOPE 2.11, HEPG2TOX_R_SQUARED 0.713, PBLUC_HILL_SLOPE 2.64, PBLUC_R_SQUARED 0.143, read-out: LUCIFERASE INFECTION ASSAY - IC50): 5.8 µM
19 | CCOC(=O)c1c(NC(=O)CNCc2ccccn2)sc(CC)c1C | 6.49 | IC50 (HEPG2TOX_HILL_SLOPE 2.14, HEPG2TOX_R_SQUARED 0.831, PBLUC_HILL_SLOPE 2.51, PBLUC_R_SQUARED 0.552, read-out: LUCIFERASE INFECTION ASSAY - IC50): 2.7 µM
20 | Cc1ccc(C)c(OCC(O)CN2CCN(Cc3nc(-c4ccc(Cl)cc4)no3)CC2)c1 (centres undefined) | 7.62 | IC50 (HEPG2TOX_HILL_SLOPE 2.12, HEPG2TOX_R_SQUARED 0.919, PBLUC_HILL_SLOPE 1.87, PBLUC_R_SQUARED 0.881, read-out: LUCIFERASE INFECTION ASSAY - IC50): 2.36 µM
21 | CCc1ccc(Cl)c(CC)c1NC(=O)CCc1c(C)c2ccc(C)cc2oc1=O | > 10 | IC50 (HEPG2TOX_HILL_SLOPE 2.1, HEPG2TOX_R_SQUARED 0.669, read-out: LUCIFERASE INFECTION ASSAY - IC50): > 10 µM
22 | COc1ccc(C2CCCCCN2C(=O)c2csc(-c3ccsc3)n2)cc1 (centres undefined) | > 10 | IC50 (HEPG2TOX_HILL_SLOPE 2.14, HEPG2TOX_R_SQUARED 0.977, PBLUC_HILL_SLOPE 2.8, PBLUC_R_SQUARED 0.0937, read-out: LUCIFERASE INFECTION ASSAY - IC50): 5.38 µM
23 | O=C(Nc1ncc(Cc2ccccc2Br)s1)c1ccc2nc[nH]c2c1 | > 10 | IC50 (HEPG2TOX_HILL_SLOPE 2.12, HEPG2TOX_R_SQUARED 0.698, PBLUC_HILL_SLOPE 2.32, PBLUC_R_SQUARED 0.476, read-out: LUCIFERASE INFECTION ASSAY - IC50): 4.08 µM
24 | Fc1ccc2[nH]cc(CCNc3nc(Cl)nc4nc[nH]c34)c2c1 | 4.27 | IC50 (HEPG2TOX_HILL_SLOPE 2.14, HEPG2TOX_R_SQUARED 0.948, PBLUC_HILL_SLOPE 1.79, PBLUC_R_SQUARED 0.853, read-out: LUCIFERASE INFECTION ASSAY - IC50): 1.25 µM
25 | O=C(Nc1ccc(OC(F)(F)F)cc1)Nc1nnc(C(F)(F)F)s1 | 0.377 | IC50 (HEPG2TOX_HILL_SLOPE 2.11, HEPG2TOX_R_SQUARED 0.979, PBLUC_HILL_SLOPE 11.8, PBLUC_R_SQUARED 0.539, read-out: LUCIFERASE INFECTION ASSAY - IC50): 0.313 µM
26 | COc1cc(-c2[nH]nc3nccc(-c4ccc(C(C)C)cc4)c23)cc(OC)c1OC | > 10 | IC50 (HEPG2TOX_HILL_SLOPE 2.15, HEPG2TOX_R_SQUARED 0.552, PBLUC_HILL_SLOPE 10.1, PBLUC_R_SQUARED 0.355, read-out: LUCIFERASE INFECTION ASSAY - IC50): 8.21 µM
27 | CN(CC(=O)Nc1ccc(OC(F)(F)F)cc1)Cc1cc(=O)n2c([nH]c3ccccc32)c1C#N | > 10 | IC50 (HEPG2TOX_HILL_SLOPE 2.12, HEPG2TOX_R_SQUARED 0.883, PBLUC_HILL_SLOPE 1.9, PBLUC_R_SQUARED 0.564, read-out: LUCIFERASE INFECTION ASSAY - IC50): 4.93 µM
28 | O=S(=O)(Nc1cc(C(F)(F)F)cc(C(F)(F)F)c1)c1cc(F)c(Br)cc1F | 5.67 | IC50 (HEPG2TOX_HILL_SLOPE 2.12, HEPG2TOX_R_SQUARED 0.942, PBLUC_HILL_SLOPE 3.41, PBLUC_R_SQUARED 0.612, read-out: LUCIFERASE INFECTION ASSAY - IC50): 2.98 µM
29 | Cc1cc[n+](CC(=O)Nc2ccc(OC(F)F)cc2)c2ccccc12 | 1.27 | IC50 (HEPG2TOX_HILL_SLOPE 2.14, HEPG2TOX_R_SQUARED 0.242, PBLUC_HILL_SLOPE 15.8, PBLUC_R_SQUARED 0.258, read-out: LUCIFERASE INFECTION ASSAY - IC50): 1.1 µM
30 | Cc1nn(-c2ccccn2)c2nc(-c3ccc4c(c3)OCO4)ccc12 | > 10 | IC50 (HEPG2TOX_HILL_SLOPE 2.11, HEPG2TOX_R_SQUARED 0.932, read-out: LUCIFERASE INFECTION ASSAY - IC50): > 10 µM
31 | COc1ccc(NC(=O)c2nnc(CSc3nc(C)cc(-c4ccccc4)n3)s2)cc1 | 0.616 | IC50 (HEPG2TOX_HILL_SLOPE 2.12, HEPG2TOX_R_SQUARED 0.961, PBLUC_HILL_SLOPE 18.1, PBLUC_R_SQUARED 0.668, read-out: LUCIFERASE INFECTION ASSAY - IC50): 0.546 µM
32 | CC(=O)c1c(C)[nH]c(C(=O)C(C)Sc2nc3ccccc3o2)c1C (centres undefined) | > 10 | IC50 (HEPG2TOX_HILL_SLOPE 2.15, HEPG2TOX_R_SQUARED 0.56, PBLUC_HILL_SLOPE 10.4, PBLUC_R_SQUARED 0.465, read-out: LUCIFERASE INFECTION ASSAY - IC50): 8.44 µM
